The source of these data is paper PMC11050823, “The Cyclic Imine Core Common to the Marine Macrocyclic Toxins Is Sufficient to Dictate Nicotinic Acetylcholine Receptor Antagonism” (Marine Drugs, 2024).

In general, kon refers to a measure of how fast the partners come together. A word on the Kd: it is a measure of binding affinity in units of concentration. In general, IC50 refers to the midpoint of a concentration-inhibition curve.

One test deals with A-AChBP (Aplysia californica, UniProt Q8WSF8). Briefly: Stopped-flow Trp fluorescence kinetic and equilibrium binding to purified A-AChBP. Conditions: for kon / koff / Kd: A-AChBP. Here is the method: Equilibrium dissociation constants were determined either from ratios (Kd/(koff/kon)) of rate constants determined using multiple kinetic means (kon, koff, koff/GAL) or directly from stopped-flow measurements (Kd/SFeq, Kd/SPAeq) (see Experimental Procedures).
The procedures for stable expression and purification of A- and L-AChBPs are described in Appendix D. Rate constants for association (kon) and dissociation (koff) were determined by multiple kinetic means, largely as previously described. Measurement of kon and koff values entailed the direct admixture of reactants and monitoring the quenching of AChBP native Trp fluorescence. Individual rate constants were determined from linear regression of the experimental mono-exponential decay of Trp fluorescence intensity (kobs) using the linear “approach-to-equilibrium” relationship kobs = kon[spiroimine] + koff (Equation (3)). Additional measurements of koff (koff/GAL) employed stopped-flow measurement of the rate of occupation of free AChBP binding sites by a competing ligand (gallamine, used in large excess relative to its Kd) to form a non-quenching gallamine-AChBP complex. Equilibrium dissociation constants were determined either from the ratios of rate constants (Kd/(koff/kon)), or from stopped-flow measurements of the rates of gallamine or epibatidine binding to pre-equilibrated spiroimine-AChBP complexes formed using increasing spiroimine concentrations (Kd/SFeq), or by the scintillation proximity assay (SPA) where spiroimine competition against the binding of [^3H]epibatidine (to L-AChBP) or [^3H]methyllycaconitine (to A-AChBP) was monitored at equilibrium (Kd/SPAeq). […] The time course of [^3H]ligand binding was monitored over several hours.
A- and L-AChBP, flanked with an N-terminal FLAG epitope with residues numbered (-8)[…](0), were expressed as soluble, exported proteins using synthetic cDNA and stably-transfected HEK293S-GnTI^− cells selected for G418 resistance, and cultured in Dulbecco’s modified Eagle’s medium (MediaTech CellGro, Albany, NY, USA) containing fetal bovine serum (FBS) 2% (v/v). The conditioned medium was collected every 1–3 days for up to 4 weeks, supplemented with NaN3 0.02% (w/v) and stored at 4 °C. AChBPs were purified on immobilized anti-FLAG M2 antibody (Sigma-Aldrich) with elution using FLAG peptide 100 μg/mL in TRIS-HCl 50 mM pH 7.4, NaCl 150 mM, NaN3 0.02% (w/v). Purified proteins were dialyzed against the same buffer, concentrated by ultrafiltration, filtered on a 0.22 µm membrane, and stored on ice at 4 °C.

For another test, the target named is T1, human neuronal α7 nAChR (Homo sapiens, UniProt P36544).
T1 construct: expressed in transfected cells; host or cells: Xenopus laevis oocytes
Kind of test: Automated TEVC recording of ACh-evoked currents in Xenopus oocytes expressing human α7 nAChR. The format is cell-based. Conditions: for Hill Slope: concentration-inhibition curve, ACh 100 µM; for Hill Slope / IC50: 95% confidence interval in parentheses; for IC50: inhibition of ACh-evoked current, ACh 100 µM (EC50), −60 mV. An excerpt:
(§1) Functional analysis of the (±)-4 racemate and (+)-4 R and (−)-4 S enantiomers used either manual or automated two-electrode voltage-clamp (TEVC) recordings on Xenopus laevis oocytes at −60 mV holding membrane potential. The oocytes were either micro-transplanted with Torpedo α1_2βγδ-enriched electrocyte membranes or transfected with human α7 or α4β2-encoding cDNAs. When applied alone (see Experimental Procedures), none of the three spiroimines induced nAChR channel opening, thereby discarding any agonistic activity toward these nAChR subtypes. Instead, when applied together with ACh at its EC50 concentration for each nAChR subtype, all three spiroimines clearly behaved as nicotinic antagonists, whose potency depended on the receptor subtype examined (Figure 2; Table 1).
(§2) The sources for live animals and biological materials, the procedures for nAChR microtransplantation and expression in oocytes, and the procedures for manual (α1_2βγδ nAChR) and automated (α7 and α4β2 nAChRs) TEVC recording are detailed in Appendix C. […] Then, the oocyte was perfused for 45 s with the tested spiroimine at a given concentration, immediately followed by the co-application of ACh and the spiroimine at the same concentrations and times as indicated above. The oocyte was washed with Ringer’s solution, and then recovery of the ACh-evoked current was recorded.
(§3) The concentration–inhibition curves were analyzed as previously detailed using the equation I = Imax [L]^nH/(EC50^nH + [L]^nH) (Equation (1)), where I is the measured agonist-evoked current, [L] is the agonist concentration, EC50 is the agonist concentration that evoked half the maximal current (I^max), and nH is the Hill coefficient. For antagonist inhibition, current (I) values were normalized to the I^max value recorded from the same oocyte to yield the fractional (%) response data. IC50 values were established from the concentration–response curves by fitting to the equation F = 1/[1 + ([X]/IC50)^nH] (Equation (2)), where F is the fractional response obtained in the presence of the inhibitor at concentration [X], and IC50 is the inhibitor concentration reducing the ACh-evoked amplitude by half. Data analysis was performed without constraints as Log[spiroimine] versus response (three parameters), with a Hill slope ~1. Statistical significance of differences between the control and test values was assessed using either the two-tailed Student’s “t” test or the Kolmogorov–Smirnov two-sample test and p < 0.05.
(§4) Torpedo membranes containing α1_2βγδ nAChR were microtransplanted into the oocyte cytoplasm by microinjecting a membrane suspension (50 nL at 2.5 µg/µL, i.e., 125 ng total protein, in 5 mM glycine) with an electronic micro-injector (Nanoliter2000 Micro4 Controller, World Precision Instruments Inc., Hertfordshire, UK) mounted on a microscope. Human α7 and α4β2 nAChRs were expressed through microinjection, into the oocyte nucleus, of α7 mRNA and of a 1:1 (w/w) mixture of α4 and β2 cDNAs (a ratio favoring expression of the α4_3β2_2 population over the α4_2β2_3 population) (50 nL at 1 µg/µL) in a pRc/CMV expression vector (Invitrogen). Oocytes were maintained at 18 °C and TEVC recordings were performed 1–4 days later in a room with controlled temperature (20 °C).
(§5) Automated TEVC on α7 and α4β2 nAChR oocytes was performed using a HiClamp system (Multi Channel Systems, GmbH., Reutlingen, Germany). Oocytes free of follicular cells were transferred from the 96-wells of the oocyte microplate to a recording basket carrying the reference bath electrode. Oocytes were automatically impaled and clamped at a holding potential of −60 mV using borosilicate glass microelectrodes of 0.5–5 MΩ tip resistances, filled with a 1:1 (v/v) mixture of KCl 1 M and KAc 1 M. The clamped oocytes were exposed twice or thrice to ACh by incubation into a well containing ACh (at the EC50 for the assayed nAChR subtype) to obtain a control IACh peak amplitude. […]

Test [1] addresses T2, human neuronal α4β2 nAChR (Homo sapiens, UniProt P17787+P43681).
T2 construct: expressed in transfected cells; host or cells: Xenopus laevis oocytes; cDNAs in pRc/CMV vector
Briefly: Automated TEVC recording of ACh-evoked currents in Xenopus oocytes expressing human α4β2 nAChR. It counts as cell-based. Conditions: for recovery of the ACh-evoked current after washout of bound spiroimine: 10 µM spiroimine, wash; for Hill Slope: concentration-inhibition curve, ACh 150 µM; for Hill Slope / IC50: 95% confidence interval in parentheses; for IC50: inhibition of ACh-evoked current, ACh 150 µM (EC50), −60 mV.
Source text: as §1, §2, §3, §4, §5

The mark [2] stands for this setting: quenching of native Trp fluorescence.
Where [3] appears, read: quenching of native Trp fluorescence, read-out: koff (converted).
The mark [4] stands for this setting: stopped-flow with competing gallamine in large excess, read-out: koff/GAL (converted).
Setting [5] is: Kd/(koff/kon), calculated from the rate constants.
Where [6] appears, read: Kd/SFeq, stopped-flow on pre-equilibrated complexes, single experiment in triplicate.

SMILES strings stand for the structures. “Also recorded” adds a separate entry of the source. Like-named read-outs stand apart in the source and are kept apart here. Marks after values point to notes of the source that are not given here.

Sequence of A-AChBP (Q8WSF8 entry or part of it): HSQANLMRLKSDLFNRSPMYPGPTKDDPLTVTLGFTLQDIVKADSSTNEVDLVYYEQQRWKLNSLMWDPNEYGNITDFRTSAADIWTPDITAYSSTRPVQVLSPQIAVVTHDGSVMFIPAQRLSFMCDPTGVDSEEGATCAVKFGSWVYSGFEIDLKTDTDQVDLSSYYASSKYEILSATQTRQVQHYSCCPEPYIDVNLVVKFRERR
T2 sequence (P43681 29-627 limits assumed): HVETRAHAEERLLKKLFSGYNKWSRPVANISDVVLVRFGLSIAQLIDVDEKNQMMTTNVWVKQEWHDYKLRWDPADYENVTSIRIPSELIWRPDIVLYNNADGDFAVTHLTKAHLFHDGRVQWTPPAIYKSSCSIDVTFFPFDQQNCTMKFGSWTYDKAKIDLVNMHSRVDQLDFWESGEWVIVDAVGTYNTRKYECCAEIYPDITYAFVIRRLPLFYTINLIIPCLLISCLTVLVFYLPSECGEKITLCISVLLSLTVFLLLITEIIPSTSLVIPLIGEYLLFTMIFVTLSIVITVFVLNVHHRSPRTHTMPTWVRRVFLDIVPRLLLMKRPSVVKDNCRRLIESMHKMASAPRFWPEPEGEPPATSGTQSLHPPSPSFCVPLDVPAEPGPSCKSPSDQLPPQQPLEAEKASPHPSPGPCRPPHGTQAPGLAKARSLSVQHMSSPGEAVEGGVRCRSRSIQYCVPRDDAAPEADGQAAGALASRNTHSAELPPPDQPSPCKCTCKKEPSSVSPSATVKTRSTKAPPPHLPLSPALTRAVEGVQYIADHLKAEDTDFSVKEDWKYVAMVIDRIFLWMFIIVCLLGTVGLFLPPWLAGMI
T2 sequence (P17787 26-502): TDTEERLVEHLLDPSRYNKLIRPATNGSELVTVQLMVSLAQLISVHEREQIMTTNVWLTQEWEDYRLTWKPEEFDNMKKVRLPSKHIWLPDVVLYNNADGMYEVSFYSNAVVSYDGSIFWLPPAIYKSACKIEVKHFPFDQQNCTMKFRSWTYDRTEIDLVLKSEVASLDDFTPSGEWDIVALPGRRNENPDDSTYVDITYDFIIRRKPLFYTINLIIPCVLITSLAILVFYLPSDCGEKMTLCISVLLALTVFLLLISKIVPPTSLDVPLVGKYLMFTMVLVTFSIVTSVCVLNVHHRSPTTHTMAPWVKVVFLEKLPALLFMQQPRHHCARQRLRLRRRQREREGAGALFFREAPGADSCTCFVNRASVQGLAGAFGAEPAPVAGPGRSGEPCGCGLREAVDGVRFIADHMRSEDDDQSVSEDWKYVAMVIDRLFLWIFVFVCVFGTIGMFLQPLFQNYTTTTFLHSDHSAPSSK
T1 sequence (P36544 23-502): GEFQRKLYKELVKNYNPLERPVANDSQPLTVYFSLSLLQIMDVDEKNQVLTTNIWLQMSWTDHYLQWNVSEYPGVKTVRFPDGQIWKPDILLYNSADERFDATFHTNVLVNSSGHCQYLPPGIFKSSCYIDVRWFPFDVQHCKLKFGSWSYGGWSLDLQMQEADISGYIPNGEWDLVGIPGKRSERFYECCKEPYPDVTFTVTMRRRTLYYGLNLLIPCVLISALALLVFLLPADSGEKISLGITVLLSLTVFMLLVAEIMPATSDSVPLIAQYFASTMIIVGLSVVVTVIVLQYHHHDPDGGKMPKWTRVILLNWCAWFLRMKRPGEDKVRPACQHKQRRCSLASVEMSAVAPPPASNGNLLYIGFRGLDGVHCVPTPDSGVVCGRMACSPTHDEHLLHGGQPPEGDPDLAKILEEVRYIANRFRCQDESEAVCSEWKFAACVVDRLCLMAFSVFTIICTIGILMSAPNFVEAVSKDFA

The molecule `CC1=NCCCC12CCCCC21OCCO1` (racemic) [Racemic (±)-4, 7-methyl-1,4-dioxa-8-azadispiro[4.0.5.4]pentadec-7-ene] showed a kon at A-AChBP (setting [2]) of 1.05e+08 M⁻¹ s⁻¹. For the same molecule, the koff is 300 s⁻¹ on A-AChBP (setting [3]) and 250 s⁻¹ at A-AChBP (setting [4]). Moreover, the equilibrium dissociation constant (Kd) at A-AChBP (setting [5]) is 2.9 µM; on A-AChBP (setting [6]), 4.2 µM. Also, the results for the “Hill Slope” value (at human neuronal α7 nAChR; in test [1]) were 0.61 (0.47–0.75) ^b and 1.08 (0.86–1.29) ^b, respectively. The IC50 at human neuronal α7 nAChR amounted to 2.11 µM; in test [1], 6.96 µM. Moreover, the “recovery of the ACh-evoked current after washout of bound spiroimine” value (“recovery … of bound spiroimine” below) in test [1] is “fast reversibility; also recorded: fast and complete”.

As for `CC1=NCCC[C@]12CCCCC21OCCO1` [Spiroimine (+)-4 R, 7-methyl-1,4-dioxa-8-azadispiro[4.0.5.4]pentadec-7-ene], the “higher affinity compared to enantiomer (−)-4 S” value on A-AChBP (A-AChBP (text: the two AChBPs)) is reported as “ca. 2 fold”. The molecule further showed a kon on A-AChBP (setting [2]) of 1.23e+08 M⁻¹ s⁻¹. For the same molecule, the koff at A-AChBP (setting [3]) was 267 s⁻¹; on A-AChBP (setting [4]), 233 s⁻¹. Moreover, the Kd was 2.2 µM at A-AChBP (setting [5]) and 3.1 µM at A-AChBP (setting [6]). Further, the figures for the “Hill Slope” value (on human neuronal α7 nAChR; in test [1]) were 0.78 (0.54–1.01) ^b and 0.83 (0.15–1.52) ^b, respectively. The IC50 is 4.88 µM on human neuronal α7 nAChR and 9.31 µM in test [1]. Moreover, the “higher affinity compared with the (−)-4 S enantiomer” value is on record as “ca. 5 fold” at human neuronal α7 nAChR (α7 nAChR, from Table 1) and “ca. 5 fold” in test [1] (α4β2 nAChR, from Table 1). The “recovery … of bound spiroimine” value in test [1] was “fast and complete”. For the same molecule, the “agonistic activity (nAChR channel opening)” value in test [1] (spiroimine applied alone) is on record as “elicited no inward current per se”.

`CC1=NCCC[C@@]12CCCCC21OCCO1` [Spiroimine (−)-4 S, 7-methyl-1,4-dioxa-8-azadispiro[4.0.5.4]pentadec-7-ene] had a kon at A-AChBP (setting [2]) of 1.02e+08 M⁻¹ s⁻¹. The koff is 433 s⁻¹ on A-AChBP (setting [3]) and 400 s⁻¹ on A-AChBP (setting [4]). Moreover, the Kd was 4.3 µM at A-AChBP (setting [5]) and 5.4 µM on A-AChBP (setting [6]). Further, on human neuronal α7 nAChR (10 µM spiroimine, wash with Ringer's solution), the “recovery … of bound spiroimine” value was “fast and complete”. Also, the “Hill Slope” value on human neuronal α7 nAChR is 0.58 (0.44–0.72) ^b; in test [1] it was 0.53 (0.32–0.74) ^b. Also, the results for the IC50 (on human neuronal α7 nAChR; in test [1]) were 1.45 µM and 1.41 µM, respectively.
